What all share (type): in vitro ADME
The subject of data set [1] is MDR1. Briefly: MDCK-MDR1 permeability assay. Conditions: dog, MDCK-MDR1, MDCK-MDR1 cells; for efflux ratio at 2 h, 3 μM: Papp B→A divided by Papp A→B, read-out: Efflux ratio (ER); for Papp A→B at 2 h, 3 μM: test compound 3 μM, 2 hours at 37 degrees C, apical to basolateral. As for the experimental part: The bidirectional permeability (Apical to Basal and Basal to Apical directions) of test compounds in MDCK-MIDR1 cells were evaluated using MDCK-MIDR1 cells seeded in Solvo PreadyPort™ MDCK 96-well plate. Once the plate was received from ReadyCell (Barcelona, Spain), it was treated as per PreadyPort™ user's manual.
For the Apical to Basolateral (A→B) permeability, 80 μL of test compound (3 μM) co-dosed with LY (Lucifer Yellow) (100 μM) in HBSS (Hank's Balanced Salt Solution) assay buffer was added to the donor side (A) while 250 μL of HBSS buffer was added to the receiver side (B). For the Basolateral to Apical (B→A) permeability, 255 μL of test compound (3 μM) in HBSS assay buffer was added to the donor side (B) while 75 μL of HBSS buffer containing LY (100 μM) was added to the receiver side (A).
The plate was placed in an incubator set at 37 degrees C. After 10 minutes of pre-warming, 5 μL aliquot was taken from donor compartment and set aside as the dosing solution. The MDCK-MDR1 incubation plate was placed back into the incubator for 2 hours of incubation at 37 degrees C. After 2 hours of incubation, 25 μL and 5 μL aliquots were removed from the receiver and donor sides, respectively. To the 5 μL aliquots taken from the donor sides (before and after a 2-hour incubation) were diluted with 20 μL of the HBSS buffer. All samples were mixed with 150 μL with acetonitrile containing internal standard (IS) and 200 μL water, and analyzed by LC-MS/MS.
The apparent permeability (Papp) was calculated using the following formula: Papp=dQ/dt×1/A×C0 where: • dQ/dt: amount of translocated material over incubation time (nmol/s) • A: area of insert (0.14 cm^2 for PreadyPort™ MDR1-96) • C0: initial concentration of product applied in apical (A→B) or basal (B→A) compartment (nmol/mL)
The efflux ratio (ER) was measured by dividing the Papp (basolateral to apical direction) by Papp (apical to basolateral direction). It is a general measure of the involvement of active processes. An ER>2 is considered positive for active transport.
Percent recovery was measured using the following equation:
[formula] where: • VR: Volume of the receiver compartment (mL) • VD: Volume of the donor compartment (mL) • CN: Concentration of dosing solution (μM) collected after 10 minutes of incubation • CR^final: Receiver concentration at the end of the incubation (μM) • CD^final: Donor concentration at the end of the incubation (μM)
The data reported in Table 3 were obtained according to the MDCK-MDR1 permeability assay described above.

Data set [2] concerns human hepatocytes. Nature of the data set: Hepatocytes stability assay (human hepatocytes). Conditions: human hepatocytes; scaled hepatic clearance divided by liver blood flow (well-stirred model, fu assumed unity). Here is the method: (§1) In vitro metabolic stability was assessed using cryopreserved hepatocytes from male Sprague Dawley rats and a pool of 50 mixed gender humans (BioIVT, Baltimore, MD). The incubation mixtures were prepared by mixing 250 μL of pre-warmed KHB (Krebs-Henseleit buffer) containing 2×10^6 cell/mL of hepatocytes with 250 μL of pre-warmed KHB buffer containing 2 μM of test compounds in a 48-well plate, giving a final concentration of 1 μM test compound (0.1% DMSO) and 1×10^6 cell/mL of hepatocytes. The reaction mixture was incubated at 37 degrees C. A 50 μL aliquot of incubation mixture was taken at time points (0, 15, 30, 60, 120 and 240 minutes) and transferred into a 96-well plate containing 300 μL ice-cold acetonitrile (containing 30 ng/mL of labetalol and 10 ng/mL of Naltrexone-d3 as internal standards) and immediately placed in ice to terminate the reaction. Samples were centrifuged, and supernatants were transferred into 96-well plates for liquid chromatography with tandem mass spectrometry (LC-MS/MS) analysis to monitor the depletion of the test compound.
(§2) Data was calculated as percent remaining by assuming zero-minute time point peak area ratio (analyte/IS) as 100% and dividing remaining time point peak area ratios by zero-minute time point peak area ratio. Data were fitted to a first-order decay model to determine half-life. From a plot of log (ln) peak area against time, the slope of the line was determined. Subsequently, half-life (T1/2) and intrinsic clearance (CLint) were calculated using the equations below: Elimination rate constant (k)=(−slope) Half-life (T1/2) min=0.693/k Intrinsic Clearance (CLint) (mL/min/million cells)=(V×0.693)/T1/2 V=incubation volume mL/number of cells The in vitro T1/2 was converted to in vitro intrinsic clearance (CLint,hep) in units of mL/min/kg using the formula shown below:
(§3) [formula] The in vitro intrinsic clearance (CLint,hep) was scaled to in vivo hepatic clearance (CL,hep) using the following equation which was adapted from a well-stirred model.
(§4) [formula] where Q is the liver blood flow and fu is the fraction unbound (assumed to be unity in this case). All parameters used in the calculation are shown below (Table 4).
(§5) The extraction ratio (ER) was calculated by dividing the hepatic clearance of a compound to the liver blood flow. The data reported in Table 5 were obtained according to the human hepatocytes stability assay described above.

The nature of data set [3]: Hepatocytes stability assay (human hepatocytes). As to conditions: both sexes, human, cryopreserved hepatocytes, cryopreserved human hepatocytes (pool of 50 mixed gender); 1 μM test compound; 1×10^6 cell/mL; 37 degrees C; read-out: CLint (μL/min/million cells). Here is the method: as §1, §2, §3, §4, §5

Structures are written as SMILES.

For the compound `CC(C)S(=O)(=O)N[C@H]1CCCN2CCOc3ncccc3[C@H]3CC[C@H](CC3)OCC12` (stereo in doubt) [Compound 64], in data set [1], the efflux ratio at 2 h, 3 μM came to 1.2 and the Papp A→B (as a rule, how fast a substance crosses the layer from the apical side) at 2 h, 3 μM turned out to be 12 ×10⁻⁶ cm/s. Besides, in data set [2], the “Extraction Ratio (ER)” value is recorded as 0.87. For the same compound, the hepatocyte CLint at 1 μM in data set [3] is 46 µL/min/1e6 cells.
As to `O=C1COc2ccccc2C2CCC(CC2)OC[C@H]2[C@@H](NS(=O)(=O)CCO)CCCN12` (stereo in doubt) [Compound 19], in data set [1], the efflux ratio at 2 h, 3 μM is greater than 100 and the Papp A→B at 2 h, 3 μM is less than 0.092 ×10⁻⁶ cm/s. Moreover, the “Extraction Ratio (ER)” value in data set [2] amounted to 0.50. Moreover, the hepatocyte CLint at 1 μM in data set [3] was found to be 6.6 µL/min/1e6 cells.
Regarding `Cc1ccc2c(c1)C1CCC(CC1)OC[C@H]1[C@@H](NS(=O)(=O)C3CC3)CCCN1C(=O)CO2` (stereo in doubt) [Compound 13], in data set [1], the efflux ratio at 2 h, 3 μM was found to be 72 and the Papp A→B at 2 h, 3 μM amounted to 0.35 ×10⁻⁶ cm/s. In data set [2], the “Extraction Ratio (ER)” value is 0.48. Moreover, in data set [3], the hepatocyte CLint at 1 μM worked out at 6.3 µL/min/1e6 cells.
Taken in the same sequence, the figures for `Cc1cccc2c1[C@H]1CC[C@H](CC1)OCC1[C@@H](NS(=O)(=O)C3CC3)CCN1C(=O)CO2` (stereo in doubt) [Compound 70] were 4.2, 3.7 ×10⁻⁶ cm/s, 0.87 and 45 µL/min/1e6 cells.
Taken in the same sequence, the figures for `CCS(=O)(=O)N[C@H]1CCCN2CCOc3ccccc3[C@H]3CC[C@H](CC3)OCC12` (stereo in doubt) [Compound 53] were 1.8, 5.6 ×10⁻⁶ cm/s, 0.90 and 58 µL/min/1e6 cells.
On the same counts, the results for `O=C1COc2ccccc2[C@H]2CC[C@H](CC2)OCC2[C@@H](NS(=O)(=O)C3CCCC3)CCCN12` (stereo in doubt) [Compound 33] are 59, 0.55 ×10⁻⁶ cm/s, 0.86 and 41 µL/min/1e6 cells.
For `Cc1ccc2c(c1)[C@H]1CC[C@H](CC1)OCC1[C@@H](NS(C)(=O)=O)CCCN1CCO2` (stereo in doubt) [Compound 54], in data set [1], the efflux ratio at 2 h, 3 μM amounted to 2 and the Papp A→B at 2 h, 3 μM is 5.2 ×10⁻⁶ cm/s. The “Extraction Ratio (ER)” value in data set [2] was found to be 0.85. Besides, in data set [3], the hepatocyte CLint at 1 μM came out at 38 µL/min/1e6 cells.
Taken in the same sequence, the figures for `CC(C)S(=O)(=O)N[C@H]1CCCN2CCOc3ccccc3[C@H]3CC[C@H](CC3)OCC12` (stereo in doubt) [Compound 52] were 2.4, 3.9 ×10⁻⁶ cm/s, 0.90 and 59 µL/min/1e6 cells.
As for `Cc1cccc2c1C1CCC(CC1)OC[C@H]1[C@@H](NS(=O)(=O)C(C)C)CCCN1C(=O)CO2` (stereo in doubt) [Compound 9], in data set [1], the efflux ratio at 2 h, 3 μM was found to be 50 and the Papp A→B at 2 h, 3 μM amounted to 0.87 ×10⁻⁶ cm/s. For the same compound, the “Extraction Ratio (ER)” value in data set [2] is given as 0.83. In addition, in data set [3], the hepatocyte CLint at 1 μM is 32 µL/min/1e6 cells.
For `Cc1ccnc2c1[C@H]1CC[C@H](CC1)OCC1[C@@H](NS(=O)(=O)C3COC3)CCCN1C(=O)CO2` (stereo in doubt) [Compound 88], in data set [1], the efflux ratio at 2 h, 3 μM was 25 and the Papp A→B at 2 h, 3 μM came to 0.84 ×10⁻⁶ cm/s. In addition, in data set [2], the “Extraction Ratio (ER)” value is recorded as 0.50. Also, in data set [3], the hepatocyte CLint at 1 μM was found to be 6.7 µL/min/1e6 cells.
On the same counts, the results for `Cc1c(Cl)ccc2c1[C@H]1CC[C@H](CC1)OCC1[C@@H](NS(=O)(=O)C(C)C)CCCN1C(=O)CO2` (stereo in doubt) [Compound 28] are 92, 0.43 ×10⁻⁶ cm/s, 0.36 and 3.8 µL/min/1e6 cells.
As for `O=S(=O)(CC1CCC1)N[C@H]1CCCN2CCOc3ccccc3[C@H]3CC[C@H](CC3)OCC12` (stereo in doubt) [Compound 55], in data set [1], the efflux ratio at 2 h, 3 μM was 31 and the Papp A→B at 2 h, 3 μM amounted to 0.23 ×10⁻⁶ cm/s. Further, in data set [2], the “Extraction Ratio (ER)” value was determined as 0.91. For the same compound, the hepatocyte CLint at 1 μM in data set [3] amounted to 69 µL/min/1e6 cells.
Taken in the same sequence, the figures for `Cc1ncnc2c1[C@H]1CC[C@H](CC1)OCC1[C@@H](NS(=O)(=O)C(C)C)CCN1C(=O)CO2` (stereo in doubt) [Compound 86] were 24, 1.9 ×10⁻⁶ cm/s, 0.38 and 4.1 µL/min/1e6 cells.
As to `O=C1COc2ccccc2C2CCC(CC2)OC[C@H]2[C@@H](NS(=O)(=O)CF)CCCN12` (stereo in doubt) [Compound 6], in data set [1], the efflux ratio at 2 h, 3 μM was 35 and the Papp A→B at 2 h, 3 μM is 1 ×10⁻⁶ cm/s. Further, the “Extraction Ratio (ER)” value in data set [2] was 0.73. The hepatocyte CLint at 1 μM in data set [3] is 18 µL/min/1e6 cells.
Taken in the same sequence, the figures for `O=S(=O)(N[C@H]1CCCN2CCOc3ccccc3[C@H]3CC[C@H](CC3)OCC12)C1CC1` (stereo in doubt) [Compound 51] were 1.1, 7.8 ×10⁻⁶ cm/s, 0.86 and 42 µL/min/1e6 cells.

The values above are taken from patent US12006330B2, “Substituted macrocyclic compounds and related methods of treatment” (Alkermes, Inc., priority 2020, dated 2024).
